The conditions of this data set: Liquid; for mass density / viscosity: 298.15 K, 101.33 kPa; for Normal boiling temperature: Ebulliometric method (Recirculating still).

± gives the expanded uncertainty stated by the source.

As usually defined, the mass density is mass per unit of volume. The viscosity is the internal friction of a fluid under shear. As to `CC(=O)O` [acetic acid], the mass density came to 1043.6 ± 0.6 kg/m3, the viscosity is 1.115 ± 0.035 mPa·s and the Normal boiling temperature turned out to be 117.80 ± 0.2 °C.
As to `CCO` [ethanol], the mass density was 785.4 ± 0.6 kg/m3, the viscosity is 1.082 ± 0.034 mPa·s and the Normal boiling temperature was determined as 78.28 ± 0.2 °C.
Take `CCOC(C)=O` [ethyl acetate]: the mass density is listed as 894.4 ± 0.4 kg/m3, the viscosity came to 0.426 ± 0.016 mPa·s and the Normal boiling temperature came to 77.12 ± 0.2 °C.

These data come from the NIST ThermoML archive (doi:10.1016/j.fluid.2005.07.010).
